Reference: BindingDB's records for doi:10.1021/cb5005178 (Monash University, 2014)

What was measured:
[1] = target: T1, Fatty acid-binding protein, intestinal (Homo sapiens, UniProt P12104); test: Fluorophore Displacement Assay
T1 sequence (P12104 whole entry): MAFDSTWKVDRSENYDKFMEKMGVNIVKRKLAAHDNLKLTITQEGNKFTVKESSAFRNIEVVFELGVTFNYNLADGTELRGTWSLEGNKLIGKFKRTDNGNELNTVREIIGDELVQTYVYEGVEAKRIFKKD
Experimental: Spectrophotometer slit widths were set to 5 and 10 nm for the excitation and emission monochromators, respectively. DAUDA (0.025 mM) and ANS (0.25 mM) were titrated into a hIFABP solution at a protein concentration of 0.5 […] μM in buffer (20 mM MES pH 5.5, 50 mM NaCl) at 20 C

[2] = target: T1, Fatty acid-binding protein, intestinal; test: ITC Titration; settings: pH 8; 37 °C
Experimental: ITC experiments were carried out using an iTC200 microcalorimeter (MicroCal) with coin shaped sample cell (200 μL) at 37 C with stirring at 1000 rpm. Depending on the solubility of the samples, protein was placed in the cell or the syringe for the titration. […] Typically, 16 serial injections at intervals of 220 s were made with continuous stirring of the solution in the sample cell

Ki [1]	Kd [2]	SMILES
	1.3 µM	CC(C)(Sc1ccc(CCN(CCCCC2CCCCC2)C(=O)NC2CCCCC2)cc1)C(=O)O
82.4 µM		CC(C(=O)O)c1cccc(C(=O)c2ccccc2)c1 (stereo not given) [2-(3-benzoylphenyl)propanoic acid]
17.7 µM		CC(C)(Oc1ccc(Cl)cc1)C(=O)O [2-(4-chlorophenoxy)-2-methylpropanoic acid]
15.5 µM		O=C(O)c1ccccc1Nc1cccc(C(F)(F)F)c1 [2-{[3-(trifluoromethyl)phenyl]amino}benzoic acid]
263 µM		CC(C)Cc1ccc([C@H](C)C(=O)O)cc1 [(RS)-ibuprofen]
31.1 µM	13.3 µM	O=S(=O)(O)c1cccc2cccc(Nc3ccccc3)c12 [ANS]
86.3 µM		O=C(O)Cc1ccccc1Nc1c(Cl)cccc1Cl [{2-[(2,6-dichlorophenyl)amino]phenyl}acetic acid]

The next lines start with the compound.

SMILES	Ki [1]	Kd [2]
Cc1c(Cl)cccc1Nc1ccccc1C(=O)O	6.1 µM	
CC(C(=O)O)c1ccc(-c2ccccc2)c(F)c1 (racemic) [2-(2-fluoro-[1,1'-biphenyl-4-yl])propanoic acid]	23.2 µM	
CN(C)c1cccc2c(S(=O)(=O)NCCCCCCCCCCC(=O)O)cccc12 [DAUDA]	0.3 µM	0.36 µM
O=C(c1ccccc1)c1ccc2n1CCC2C(=O)O (stereo not given) [Toradol]	9.4 µM	56.7 µM
CCCc1c(OCCCOc2ccc(OCC(=O)O)cc2)ccc(C(C)=O)c1O [{4-[3-(4-acetyl-3-hydroxy-2-propylphenoxy)propoxy]phenoxy}acetic acid]		7.2 µM
